Experimental data as given in US7429564B2, “Oral insulin therapy” (Emisphere Technologies, Inc., priority 2002, dated 2008).

Key:
[1] = Nonclinical pharmacokinetic studies of 4-CNAB; format: in vivo; settings: mice, rats and monkeys
Protocol: The present invention comprising compositions of insulin and the delivery agent 4-CNAB was evaluated for safety and toxicity in a nonclinical program that included pharmacological screening, pharmacokinetic profiling, and toxicity assessments in rats and monkeys.

[2] = in vivo, sc
Source text: Safety assessments included physical examinations, medical history, vital signs, 12-lead electrocardiogram (ECG) monitoring, laboratory evaluations and checking for adverse events. Activity parameters included blood glucose, insulin, C-peptide, and 4-CNAB plasma concentration measurements.

[3] = test system: glucose infusion rate; experiment: Example 6: glucose clamp study, glucose infusion rate PD and relative biopotency; format: in vivo, human; settings: SC 15 U
Source text: The glucose clamp technique was applied to compare the time-action profiles of the orally applied insulin in comparison to SC regular insulin. This method utilizes negative feedback from frequent blood glucose sample values to adjust a glucose infusion to maintain a defined and constant blood glucose level. The glucose infusion rate therefore becomes a measure of the pharmacodynamic effect of any insulin administered.
During each study visit, stabilized individual blood glucose concentrations were maintained after drug administration using a glucose clamp procedure. The glucose clamp technique [DeFronzo, et al. 1979, Glucose Clamp Technique: A Method of Quantifying Insulin Secretion and Resistance, Am. J. Physiol. 237: E214-E223.] was use to compare the time-action profiles of the orally-applied insulin to s.c. insulin. This method utilizes negative feedback from frequent blood glucose sample values to adjust a glucose infusion to maintain euglycemia. The glucose infusion rate becomes a measure of the pharmacodynamic effect of any insulin administered.
The clamp level was adjusted by a variable intravenous (IV) insulin infusion and glucose infusion rate during a 6 hour baseline period before dosing. During the last 2 hours before administration of the study medication, the insulin infusion was set to a rate of 0.2 mU/kg/min, which rate was not changed until the end of the experiment. At t=0 minutes, exogenous insulin was administered by oral administration or by SC injection. The PD response elicited by the study medication was registered for another 6 hours. No food intake was allowed during this period, but water could be consumed as desired.
The glucose clamp procedure was performed using a Biostator (glucose controlled insulin infusion system—GCIIS, Life Science Instruments, Elkhart, Ind., USA). A 17-gauge PTFE catheter was inserted into an antecubital vein for blood sampling and kept patent with 0.15 mol/L saline. A dorsal hand vein or lateral wrist vein of the same arm was cannulated in retrograde fashion for insertion of an 18-gauge PTFE double lumen catheter connected to the glucose sensor of the Biostator. The catheterized hand was placed in a hot box and warmed to an air temperature of 55° C. On the contralateral arm, a third vein was cannulated with an 18-gauge PTFE catheter to infuse a glucose solution (20% in water). Into the same vein, an insulin solution (regular human insulin in 0.15 mol/L saline diluted with 2 mL of the patient's blood per 100 mL) was continuously infused by means of a syringe pump (Perfusor Secura FT, Braun, Melsungen, Germany).
The primary PD endpoint of the study was the area under the glucose infusion rate curve (AUCGIR) in the first hr after drug administration (AUCGIR 0-1h). The secondary endpoints for pharmacodynamic assessment were the following parameters: Maximum glucose infusion rate (GIRmax), time to GIRmax (tGIRmax), area under the glucose infusion rate curve in defined time-intervals (AUCGIR 0-2h, AUCGIR 0-3h, AUCGIR 0-4h, AUCGIR 0-5h, AUCGIR 0-6h), time to early and late half-maximum glucose infusion rate (early and late TGIR 50%), and maximum reduction of C-peptide concentrations.
PD parameters used for analysis were the maximum glucose infusion rate after application of the study drugs (GIRmax), the time to maximum glucose infusion rate (tGIRmax), time to half-maximum GIR values before GIRmax (early tGIR 50%), time to half-maximum GIR values after GIRmax (late tGIR 50%), and the area under the glucose infusion rate versus time curves from 0 to 60, 120, 180, 240, 300, and 360 min after dosing, and from 180 to 360 min post dose (AUCGIR 0-1h, AUCGIR 0-2h, AUCGIR 0-3h AUCGIR 0-4h, AUCGIR 0-5h, AUCGIR 0-6h, AUCGIR 3-6h, respectively). In addition, plasma concentrations of C-peptide and plasma glucose concentrations were used for PD analysis. […]

[4] = test system: blood glucose; parameters: species or system Sprague-Dawley rats; settings: rat, in vivo, 0.05 mg/kg
Protocol: An aqueous insulin stock solution was prepared (at pH 7.5) with a final insulin concentration of approximately 15 mg/mL. Delivery agents were dissolved in water with subsequent additions of sodium hydroxide or hydrochloric acid to both dissolve the delivery agent and to titrate the dosing solution to pH 7.5-8.5. The required amount of insulin was added to the delivery agent solution before dosing.
Insulin levels in the rats were assayed using the Insulin ELISA Test Kit [DSL, Webster, Tex. Cat. #DSL-10-1600]. The assay covered the range 3.125 to 250 mU/mL. Blood glucose levels in the rats were measured using a glucometer, One-Touch Basic Blood Glucose Monitoring System, manufactured by Lifescan Inc. (Milpitas, Calif.).
A total of 60 male Sprague-Dawley rats were fasted for 24 hours and then anesthetized with Thorazine (1.5 mg/kg, im) and Ketamine (44 mg/kg, im). They were then divided into the following 5 treatment groups: • 1. H2O (p.o. 1 mL/kg) • 2. Carrier (p.o., 1 mL/kg; 200 mg/kg) • 3. Insulin (p.o., 1 ml/kg; 0.5 mg/kg) • 4. Insulin and Carrier (p.o., 1 ml/kg; 0.5 mg/kg Insulin and 200 mg/kg 1182) • 5. Insulin (s.c., 0.05 mg/kg) • There were twelve animals per group, with three being sacrificed at 30, 60, 120 and 180 minutes. For serum insulin and blood glucose monitoring, 0.4 mL of blood was drawn from the tail artery. […]

Molecule | Absorption after oral administration [1] | Hypoglycemia occasions requiring rescue treatment [2] | Treatment-related adverse events [2] | GIR Early t50% [3] [min] | GIRmax [3] [mg/kg/min] | Glucose infusion rate AUC0-1h [3] [mg/kg] | Glucose infusion rate AUC0-2h [3] [mg/kg] | Glucose infusion rate AUC0-3h [3] [mg/kg] | Glucose infusion rate AUC0-4h [3] [mg/kg] | Glucose infusion rate AUC0-5h [3] [mg/kg] | Glucose infusion rate AUC0-6h [3] [mg/kg] | tGIRmax [3] [min] | GIR Early t50% ([3]; listed as SC Regular Insulin) [min] | GIRmax ([3]; listed as SC Regular Insulin) [mg/kg/min] | Glucose infusion rate AUC0-1h ([3]; listed as SC Regular Insulin) [mg/kg] | tGIRmax ([3]; listed as SC Regular Insulin) [min] | Delay of tmax vs oral [4]
O=C(O)CCCNC(=O)c1ccc(Cl)cc1O [4-CNAB, 4-[(4-chloro, 2-hydroxybenzoyl)amino]butanoic acid] | absorbed rapidly following oral administration, and subsequently cleared from the body | – | – | – | – | – | – | – | – | – | – | – | – | – | – | – | –
SC insulin: human regular insulin injected subcutaneously (Humulin R or equivalent; Calbiochem insulin in the rat studies) | – | twelve | sixteen events | 150 ± 87 | 3.6 ± 1.8 | 27 ± 32 | 136.54 ± 106.54 | 271.43 ± 191.04 | 421.33 ± 264.76 | 548.83 ± 342.71 | 650.70 ± 380.16 | 255 ± 108 | 150.40 ± 87.44 | 3.57 ± 1.79 | 27.38 ± 32.22 | 255.30 ± 108.15 | about 15 minutes
